Data reported in ChEMBL document CHEMBL1821570, “Inhibition of the helicase activity of the HCV NS3 protein by symmetrical dimeric bis-benzimidazoles” (Bioorg Med Chem Lett, 2011).
Activity calls are given as the source filed them. No cut-off for these calls is given here.

Experiments:
[1] = Inhibition of recombinant hepatitis C virus NS3 helicase domain using DNA duplex S(DB2)b labelled with [gamma-32P]ATP as substrate after 30 mins; parameters: species or system Hepacivirus hominis
[2] = tested on: Hepacivirus hominis; assay: Inhibition of recombinant hepatitis C virus NS3 helicase domain NTPase activity by TLC
[3] = Inhibition of recombinant hepatitis C virus NS3 helicase domain using DNA duplex S1 labelled with [gamma-32P]ATP as substrate after 30 mins; parameters: species or system Hepacivirus hominis
[4] = Inhibition of recombinant hepatitis C virus NS3 helicase domain using DNA duplex S(DB11) labelled with [gamma-32P]ATP as substrate after 30 mins; parameters: species or system Hepacivirus hominis
[5] = Inhibition of recombinant hepatitis C virus NS3 helicase domain using DNA duplex SM1 labelled with [gamma-32P]ATP as substrate after 30 mins; parameters: species or system Hepacivirus hominis
[6] = Inhibition of recombinant hepatitis C virus NS3 helicase domain using DNA duplex S(DB2)a labelled with [gamma-32P]ATP as substrate after 30 mins; parameters: species or system Hepacivirus hominis
[7] = tested on: Hepacivirus hominis; assay: Inhibition of recombinant hepatitis C virus NS3 helicase domain using DNA duplex S(DB2)a labelled with [gamma-32P]ATP as substrate up to 400 after 30 mins
[8] = tested on: Hepacivirus hominis; assay: Inhibition of recombinant hepatitis C virus NS3 helicase domain using DNA duplex S(DB2)b labelled with [gamma-32P]ATP as substrate up to 400 after 30 mins
[9] = tested on: Hepacivirus hominis; assay: Inhibition of recombinant hepatitis C virus NS3 helicase domain using DNA duplex SM1 labelled with [gamma-32P]ATP as substrate up to 400 after 30 mins
[10] = tested on: Hepacivirus hominis; assay: Inhibition of recombinant hepatitis C virus NS3 helicase domain using DNA duplex S1 labelled with [gamma-32P]ATP as substrate up to 400 after 30 mins
[11] = tested on: Hepacivirus hominis; assay: Inhibition of recombinant hepatitis C virus NS3 helicase domain using DNA duplex S(DB11) labelled with [gamma-32P]ATP as substrate up to 400 after 30 mins
[12] = Inhibition of recombinant hepatitis C virus NS3 helicase domain NTPase activity by TLC in presence of poly(U); parameters: species or system Hepacivirus hominis
[13] = Inhibition of recombinant hepatitis C virus NS3 helicase domain using DNA duplex SM2 labelled with [gamma-32P]ATP as substrate after 30 mins; parameters: species or system Hepacivirus hominis
[14] = Inhibition of recombinant hepatitis C virus NS3 helicase domain using RNA duplex rSM2 labelled with [gamma-32P]ATP as substrate after 30 mins; parameters: species or system Hepacivirus hominis
[15] = tested on: Hepacivirus hominis; assay: Enhancement of binding efficacy between compound-treated recombinant hepatitis C virus NS3 helicase and 32P-labelled SM1 DNA duplex after 10 mins
[16] = tested on: Hepacivirus hominis; assay: Inhibition of recombinant hepatitis C virus NS3 helicase domain NTPase activity at 400 uM by TLC in presence of poly(U)
[17] = tested on: Hepacivirus hominis; assay: Inhibition of recombinant hepatitis C virus NS3 helicase domain assessed as the enzyme concentration at which a half of compound molecules are bound by PTI spectrofluorimetry
[18] = tested on: Hepacivirus hominis; assay: Inhibition of recombinant hepatitis C virus NS3 helicase domain by PTI spectrofluorimetry

Row | SMILES | IC50 [1] [µM] | inhibition [2] | IC50 [3] [µM] | IC50 [4] [µM] | IC50 [5] [µM] | IC50 [6] [µM] | IC50 [12] [µM] | IC50 [13] [µM] | IC50 [14] [µM] | Activity [15] | inhibition [16] | Activity [17] [µM] | inhibition [18] | inhibition [7] | inhibition [8] | inhibition [9] | inhibition [10] | inhibition [11]
1 | CN(CCCOc1ccc(-c2nc3ccc(-c4nc5ccc(N6CCN(C)CC6)cc5[nH]4)cc3[nH]2)cc1)CCCOc1ccc(-c2nc3ccc(-c4nc5ccc(N6CCN(C)CC6)cc5[nH]4)cc3[nH]2)cc1 | 10 | inactive | 5 | 15 | 18 | 12 | – | – | – | – | – | – | – | – | – | – | – | –
2 | CN1CCN(c2ccc3[nH]c(-c4ccc5[nH]c(-c6ccc(O)cc6)nc5c4)nc3c2)CC1 | – | inactive | – | – | – | – | – | – | – | – | – | – | – | inactive | inactive | inactive | inactive | inactive
3 | CC(=O)NCc1nc2ccc(-c3nc4ccc(N5CCN(C)CC5)cc4[nH]3)cc2[nH]1 | – | inactive | – | – | – | – | – | – | – | – | – | – | – | inactive | inactive | inactive | inactive | inactive
4 | CN1CCN(c2ccc3nc(-c4ccc5nc(CNC(=O)CCCCCCCCCCCC(=O)NCc6nc7ccc(-c8nc9ccc(N%10CCN(C)CC%10)cc9[nH]8)cc7[nH]6)[nH]c5c4)[nH]c3c2)CC1 | 12 | inactive | 10 | 8 | 7 | 7 | 20 | 9 | 1.4 | Active | inactive | 7.3 | Active | – | – | – | – | –

Continued, in another order:

Row | IC50 [1] [µM] | inhibition [2] | IC50 [3] [µM] | IC50 [4] [µM] | IC50 [5] [µM] | IC50 [6] [µM] | IC50 [12] [µM] | IC50 [13] [µM] | IC50 [14] [µM] | Activity [15] | inhibition [16] | Activity [17] [µM] | inhibition [18] | SMILES | inhibition [7] | inhibition [8] | inhibition [9] | inhibition [10] | inhibition [11]
5 | 140 | inactive | > 100 | 140 | 210 | 150 | – | – | – | – | – | – | – | CN1CCN(c2ccc3nc(-c4ccc5nc(CNC(=O)CCCCCCCC(=O)NCc6nc7ccc(-c8nc9ccc(N%10CCN(C)CC%10)cc9[nH]8)cc7[nH]6)[nH]c5c4)[nH]c3c2)CC1 | – | – | – | – | –
6 | 200 | inactive | > 100 | 160 | 225 | 150 | – | – | – | – | – | – | – | CN1CCN(c2ccc3nc(-c4ccc5nc(CNC(=O)CCCCCC(=O)NCc6nc7ccc(-c8nc9ccc(N%10CCN(C)CC%10)cc9[nH]8)cc7[nH]6)[nH]c5c4)[nH]c3c2)CC1 | – | – | – | – | –
7 | 250 | inactive | > 100 | 230 | 235 | 220 | – | – | – | – | – | – | – | CN1CCN(c2ccc3nc(-c4ccc5nc(CNC(=O)CCCC(=O)NCc6nc7ccc(-c8nc9ccc(N%10CCN(C)CC%10)cc9[nH]8)cc7[nH]6)[nH]c5c4)[nH]c3c2)CC1 | – | – | – | – | –
8 | 240 | inactive | – | 170 | 230 | 150 | – | – | – | – | – | – | – | CN1CCN(c2ccc3nc(-c4ccc5nc(CNC(=O)CCCCC(=O)NCc6nc7ccc(-c8nc9ccc(N%10CCN(C)CC%10)cc9[nH]8)cc7[nH]6)[nH]c5c4)[nH]c3c2)CC1 | – | – | – | – | –
9 | 260 | inactive | > 100 | 240 | 230 | 250 | 280 | 240 | 38 | inactive | inactive | 51 | inactive | CN1CCN(c2ccc3nc(-c4ccc5nc(CNC(=O)CCC(=O)NCc6nc7ccc(-c8nc9ccc(N%10CCN(C)CC%10)cc9[nH]8)cc7[nH]6)[nH]c5c4)[nH]c3c2)CC1 | – | – | – | – | –
